Here are results for 11 compounds from ChEMBL document CHEMBL3860095, “1H-1,2,3-Triazolyl-substituted 1,3,4-oxadiazole derivatives containing structural features of ibuprofen/naproxen: Their synthesis and antibacterial evaluation” (2016).

Common to all, as to assay type: functional
Holding throughout (details): read-out: DIZ

Assay [1] relates to Staphylococcus aureus. Put plainly: Antibacterial activity against clinical isolates of Staphylococcus aureus at 0.5 mg after overnight incubation by agar well diffusion method.
For a further assay, the system named is Bacillus subtilis. In words: Antibacterial activity against clinical isolates of Bacillus subtilis at 0.5 mg after overnight incubation by agar well diffusion method.
Assay [2] has as its system Staphylococcus epidermidis. Put plainly: Antibacterial activity against clinical isolates of Staphylococcus epidermidis at 0.5 mg after overnight incubation by agar well diffusion method.
The subject of assay [3] is Pseudomonas aeruginosa. Put plainly: Antibacterial activity against clinical isolates of Pseudomonas aeruginosa at 0.5 mg after overnight incubation by agar well diffusion method. (Agar diffusion results depend on both activity and mobility in agar.)
The subject of assay [4] is Escherichia coli. In words: Antibacterial activity against clinical isolates of Escherichia coli at 0.5 mg after overnight incubation by agar well diffusion method.
Assay [5] has as its system Klebsiella pneumoniae. In words: Antibacterial activity against clinical isolates of Klebsiella pneumoniae at 0.5 mg after overnight incubation by agar well diffusion method.
Assay [6] relates to Staphylococcus aureus. In words: Antibacterial activity against clinical isolates of Staphylococcus aureus at 0.05 mg after overnight incubation by agar well diffusion method.
The test system of assay [7] is Pseudomonas aeruginosa. In words: Antibacterial activity against clinical isolates of Pseudomonas aeruginosa at 0.05 mg after overnight incubation by agar well diffusion method.
Assay [8] concerns Escherichia coli. Put plainly: Antibacterial activity against clinical isolates of Escherichia coli at 0.05 mg after overnight incubation by agar well diffusion method.
In assay [9] the test system is Klebsiella pneumoniae. In words: Antibacterial activity against clinical isolates of Klebsiella pneumoniae at 0.05 mg after overnight incubation by agar well diffusion method.

As for `COc1ccc2cc([C@H](C)c3nnc(SCc4cn(CC(=O)Nc5cccc(Cl)c5)nn4)o3)ccc2c1`, the zone of inhibition at 500 µg/disc in the assay with Staphylococcus aureus [1] stood at 12 mm; in the assay on Bacillus subtilis it was 14 mm; in assay [2], 11 mm; in the assay with Pseudomonas aeruginosa [3] it was 13 mm; with Escherichia coli [4], 12 mm; with Klebsiella pneumoniae [5] it was 10 mm.
Take `CC(C)Cc1ccc(C(C)c2nnc(SCc3cn(CC(=O)Nc4cccc(Cl)c4)nn3)o2)cc1` (racemic): the zone of inhibition at 500 µg/disc in the assay with Staphylococcus aureus [1] was determined as 14 mm; in the assay on Bacillus subtilis, 12 mm; in [2], 13 mm; in the assay with Pseudomonas aeruginosa [3], 15 mm; with Escherichia coli [4], 12 mm; with Klebsiella pneumoniae [5], 11 mm.
Take `CC(C)Cc1ccc(C(C)c2nnc(SCc3cn(CC(=O)Nc4ccc(Cl)cc4)nn3)o2)cc1` (racemic): the zone of inhibition at 500 µg/disc with Staphylococcus aureus [1] turned out to be 11 mm; with Bacillus subtilis, 16 mm; in assay [2] it was 15 mm; in the assay on Pseudomonas aeruginosa [3] it was 14 mm; in the assay with Escherichia coli [4] it was 15 mm; in the assay on Klebsiella pneumoniae [5] it was 15 mm.
On to `CC(C)Cc1ccc(C(C)c2nnc(SCc3cn(-c4ccccc4)nn3)o2)cc1` (racemic), for which the zone of inhibition at 500 µg/disc came to 10 mm with Staphylococcus aureus [1]; 11 mm with Bacillus subtilis; 9 mm in assay [2]; 11 mm in the assay with Pseudomonas aeruginosa [3]; 10 mm with Escherichia coli [4]; 10 mm with Klebsiella pneumoniae [5].
For the compound `COc1ccc2cc([C@H](C)c3nnc(SCc4cn(CC(=O)Nc5c(C)cccc5C)nn4)o3)ccc2c1`, the zone of inhibition at 500 µg/disc in the assay on Staphylococcus aureus [1] was determined as 13 mm; with Bacillus subtilis, 15 mm; in assay [2] it was 12 mm; with Pseudomonas aeruginosa [3], 11 mm; in the assay on Escherichia coli [4] it was 11 mm; in the assay with Klebsiella pneumoniae [5], 9 mm.
Take `NCC[C@H](O)C(=O)N[C@@H]1C[C@H](N)[C@@H](O[C@H]2O[C@H](CN)[C@@H](O)[C@H](O)[C@H]2O)[C@H](O)[C@H]1O[C@H]1O[C@H](CO)[C@@H](O)[C@H](N)[C@H]1O` [AMIKACIN]: the zone of inhibition at 50 µg/disc in the assay on Staphylococcus aureus [6] is 23 mm; in the assay with Pseudomonas aeruginosa [7] it was 22 mm; with Escherichia coli [8] it was 20 mm; in the assay with Klebsiella pneumoniae [9] it was 23 mm.
As for `COc1ccc2cc([C@H](C)c3nnc(SCc4cn(CC(=O)Nc5ccccc5Cl)nn4)o3)ccc2c1`, the zone of inhibition at 500 µg/disc in the assay on Staphylococcus aureus [1] turned out to be 15 mm; in the assay with Bacillus subtilis, 15 mm; in assay [2], 16 mm; in the assay with Pseudomonas aeruginosa [3], 14 mm; in the assay on Escherichia coli [4], 13 mm; in the assay on Klebsiella pneumoniae [5], 14 mm.
As for `COc1ccc2cc([C@H](C)c3nnc(SCc4cn(-c5ccccc5)nn4)o3)ccc2c1`, the zone of inhibition at 500 µg/disc with Staphylococcus aureus [1] was determined as 14 mm; with Bacillus subtilis, 14 mm; in assay [2] it was 15 mm; in the assay on Pseudomonas aeruginosa [3], 12 mm; in the assay with Escherichia coli [4], 13 mm; with Klebsiella pneumoniae [5], 12 mm.
For the compound `CC(C)Cc1ccc(C(C)c2nnc(SCc3cn(CC(=O)Nc4ccccc4[N+](=O)[O-])nn3)o2)cc1` (racemic), the zone of inhibition at 500 µg/disc with Staphylococcus aureus [1] was determined as 11 mm; in the assay with Bacillus subtilis it was 10 mm; in [2], 10 mm; in the assay with Pseudomonas aeruginosa [3], 9 mm; in the assay on Escherichia coli [4] it was 11 mm; with Klebsiella pneumoniae [5], 9 mm.
For `COc1ccc2cc([C@H](C)c3nnc(SCc4cn(CC(=O)Nc5ccccc5C)nn4)o3)ccc2c1`, the zone of inhibition at 500 µg/disc in the assay with Staphylococcus aureus [1] was 13 mm; with Bacillus subtilis it was 12 mm; in assay [2], 15 mm; with Pseudomonas aeruginosa [3], 14 mm; with Escherichia coli [4] it was 10 mm; with Klebsiella pneumoniae [5] it was 13 mm.
Regarding `Cc1ccccc1NC(=O)Cn1cc(CSc2nnc(C(C)c3ccc(CC(C)C)cc3)o2)nn1` (racemic), the zone of inhibition at 500 µg/disc in the assay with Staphylococcus aureus [1] turned out to be 13 mm; with Bacillus subtilis, 11 mm; in [2] it was 13 mm; in the assay with Pseudomonas aeruginosa [3], 14 mm; with Escherichia coli [4], 13 mm; in the assay on Klebsiella pneumoniae [5], 13 mm.
